Source: patent US5712263A, “Steroid derivatives” (Taisho Pharmaceutical Co., Ltd., priority 1993, dated 1998)
In brackets after ≈: the same amount, converted by molar mass.

Tested on: KB cells
Assay: Growth Inhibition Action on KB cell (in vitro)
Assay type: cell-based
Settings: Homo sapiens, 72 hours incubation, MTT absorbance, final DMSO 0.5%, read-out: IC50 (concentration of 50% growth inhibition) on KB cells
Description: Experiment: Growth Inhibition Action on KB cell (in vitro)
1×10^3 of KB cells/0.1 ml of a cell suspension in MEM medium containing 10% fetal bovine serum was placed in each well of a plate with 96 flat bottom wells, and incubated for 24 hours. This was dissolved in dimethylsulfoxide, and 100 μl of a solution (final concentration of dimethylsulfoxide: 0.5%) of a test compound diluted with the medium was added thereto, followed by incubation for 72 hours. After incubation, 4,5-dimethylthiazol-2-yl-2,5-diphenyltetrazolium bromide reagent (a color reagent) was added, and the mixture was further incubated for 4 hours.
100 μl of the medium (final concentration of dimethylsulfoxide:0.5%) was added as a control, and incubated in a similar manner. After incubation, the medium was removed, and the cells were dissolved in 150 μl of dimethylsulfoxide and the absorbance was determined. The ratio of the absorbance of the group treated with the test compound to that of the control group was determined, and the concentration of 50% growth inhibition (IC50) was calculated.

`CC(C)C[C@@H](O)[C@@]1([C@H]2CC[C@H]3[C@@H]4CC[C@H]5CC(=O)CC[C@]5(C)[C@H]4C[C@@H](O)[C@]23C)CO1` [Compound (12a)] showed an IC50 of 0.0965 µg/mL (≈ 0.231 µM).
